Data published in patent US5747466A, “3-deoxy-3-descladinose derivatives of erythromycins A and B” (Abbott Laboratories, priority 1996, dated 1998).

Assays:
Assay in all cases: In vitro antibacterial activity (MIC), agar dilution
[1] = test system: STAPHYLOCOCCUS AUREUS ATCC 6538P; assay type: cell-based; settings: S. aureus ATCC 6538P; BHI agar, 35-37 °C, 20-24 h
[2] = test system: ESCHERICHIA COLI JUHL; assay type: cell-based; settings: E. coli JUHL; BHI agar, 35-37 °C, 20-24 h
[3] = test system: PROVIDENCIA STUARTII CMX 640; assay type: cell-based; settings: P. stuartii CMX 640; BHI agar, 35-37 °C, 20-24 h
[4] = test system: STAPHYLOCOCCUS EPIDERMIDIS 3519; assay type: cell-based; settings: S. epidermidis 3519; BHI agar, 35-37 °C, 20-24 h
[5] = test system: PSEUDOMONAS AERUGINOSA 5007; assay type: cell-based; settings: P. aeruginosa 5007; BHI agar, 35-37 °C, 20-24 h
[6] = test system: STAPHYLOCOCCUS AUREUS CMX 642A; assay type: cell-based; settings: S. aureus CMX 642A; BHI agar, 35-37 °C, 20-24 h
[7] = test system: STREPTOCOCCUS BOVIS A-5169; assay type: cell-based; settings: S. bovis A-5169; BHI agar, 35-37 °C, 20-24 h
[8] = test system: CANDIDA ALBICANS CCH 442; assay type: cell-based; settings: C. albicans CCH 442; BHI agar, 35-37 °C, 20-24 h
[9] = test system: STREPTOCOCCUS PYOGENES 930; assay type: cell-based; settings: S. pyogenes 930; BHI agar, 35-37 °C, 20-24 h
[10] = test system: PSEUDOMONAS CEPACIA 296I; assay type: cell-based; settings: P. cepacia 296I; BHI agar, 35-37 °C, 20-24 h
[11] = test system: ESCHERICHIA COLI DC-2; assay type: cell-based; settings: E. coli DC-2; BHI agar, 35-37 °C, 20-24 h
[12] = test system: STREPTOCOCCUS PYOGENES PIU 2548; assay type: cell-based; settings: S. pyogenes PIU 2548; BHI agar, 35-37 °C, 20-24 h
[13] = test system: PSEUDOMONAS AERUGINOSA K799/WT; assay type: cell-based; settings: P. aeruginosa K799/WT; BHI agar, 35-37 °C, 20-24 h
[14] = test system: ACINETOBACTER CALCOACETICUS CMX 669; assay type: cell-based; settings: A. calcoaceticus CMX 669; BHI agar, 35-37 °C, 20-24 h
[15] = test system: STR[…] 508; assay type: cell-based, Streptococcus agalactiae; settings: S. agalactiae CMX 508; BHI agar, 35-37 °C, 20-24 h
Procedure: (§1) Representative compounds of the present invention were assayed in vitro for antibacterial activity as follows: Twelve petri dishes containing successive aqueous dilutions of the test compound mixed with 10 mL of sterilized Brain Heart Infusion (BHI) agar (Difco 0418-01-5) were prepared. Each plate was inoculated with 1:100 (or 1:10 for slow-growing strains, such as Micrococcus and Streptococcus) dilutions of up to 32 different microorganisms, using a Steers replicator block. The inoculated plates were incubated at 35°-37° C. for 20 to 24 hours. In addition, a control plate, using BHI agar containing no test compound, was prepared and incubated at the beginning and end of each test.
(§2) An additional plate containing a compound having known susceptibility patterns for the organisms being tested and belonging to the same antibiotic class as the test compound was also prepared and incubated as a further control, as well as to provide test-to-test comparability. Erythromycin A was used for this purpose.
(§3) After incubation, each plate was examined. The minimum inhibitory concentration (MIC) was defined as the lowest concentration of drug yielding no growth, a slight haze, or sparsely isolated colonies on the inoculum spot as compared to the growth control.

[16] = test system: MYCOBACTERIUM SMEGMATIS ATCC 114; assay type: cell-based; settings: M. smegmatis ATCC 114; BHI agar, 35-37 °C, 20-24 h
[17] = test system: NOCARDIA ARSTEROIDES ATCC 9970; assay type: cell-based; settings: Nocardia ATCC 9970; BHI agar, 35-37 °C, 20-24 h
[18] = test system: PSEUDOMONAS AERUGINOSA DPHD-5263; assay type: cell-based; settings: P. aeruginosa DPHD-5263; BHI agar, 35-37 °C, 20-24 h
[19] = test system: M[…] ATCC 9341; assay type: cell-based, Micrococcus luteus; settings: M. luteus ATCC 9341; BHI agar, 35-37 °C, 20-24 h
Procedure: as §1, §2, §3

[20] = test system: M[…] ATCC 4698; assay type: cell-based, Micrococcus luteus; settings: M. luteus ATCC 4698; BHI agar, 35-37 °C, 20-24 h
Procedure: as §1, §2, §3

[21] = test system: ESCHERICHIA COLI SS; assay type: cell-based; settings: E. coli SS; BHI agar, 35-37 °C, 20-24 h
[22] = test system: ENTEROBACTER AEROGENES ATCC 13048; assay type: cell-based; settings: E. aerogenes ATCC 13048; BHI agar, 35-37 °C, 20-24 h
[23] = test system: PSEUDOMONAS AERUGINOSA BMH10; assay type: cell-based; settings: P. aeruginosa BMH10; BHI agar, 35-37 °C, 20-24 h
[24] = test system: STAPHYLOCOCCUS AUREUS A5177; assay type: cell-based; settings: S. aureus A5177; BHI agar, 35-37 °C, 20-24 h
[25] = test system: STAPHYLOCOCCUS AUREUS 1775; assay type: cell-based; settings: S. aureus 1775; BHI agar, 35-37 °C, 20-24 h
[26] = test system: STAPHYLOCOCCUS AUREUS A-5278; assay type: cell-based; settings: S. aureus A-5278; BHI agar, 35-37 °C, 20-24 h

Row | Structure (SMILES) | minimum inhibitory concentration (MIC) [2] | minimum inhibitory concentration (MIC) [3] | minimum inhibitory concentration (MIC) [4] | minimum inhibitory concentration (MIC) [5] | minimum inhibitory concentration (MIC) [6] | minimum inhibitory concentration (MIC) [7] | minimum inhibitory concentration (MIC) [8] | minimum inhibitory concentration (MIC) [9] | minimum inhibitory concentration (MIC) [10] | minimum inhibitory concentration (MIC) [11] | minimum inhibitory concentration (MIC) [12] | minimum inhibitory concentration (MIC) [13] | minimum inhibitory concentration (MIC) [14] | minimum inhibitory concentration (MIC) [15] | minimum inhibitory concentration (MIC) [16] | minimum inhibitory concentration (MIC) [17] | minimum inhibitory concentration (MIC) [18] | minimum inhibitory concentration (MIC) [19] | minimum inhibitory concentration (MIC) [20] | minimum inhibitory concentration (MIC) [21] | also measured
1 | CC[C@H]1OC(=O)[C@H](C)C[C@H](C)[C@@H](O[C@@H]2O[C@H](C)C[C@H](N(C)C)[C@H]2O)[C@](C)(OC)C[C@@H](C)C(=O)[C@H](C)[C@@H](O)[C@]1(C)O [Ex. 1] | > 100 | > 100 | 50 | > 100 | 25 | 0.78 | > 100 | > 100 | > 100 | > 100 | 3.1 | > 100 | > 100 | 3.1 | 100 | 1.56 | > 100 | 3.1 | 6.2 | 0.78 | minimum inhibitory concentration (MIC) [1]: 25; minimum inhibitory concentration (MIC) [22]: > 100; minimum inhibitory concentration (MIC) [23]: > 100; minimum inhibitory concentration (MIC) [24]: 25; minimum inhibitory concentration (MIC) [25]: > 100; minimum inhibitory concentration (MIC) [26]: > 100
2 | CC[C@H]1OC(=O)[C@H](C)C[C@H](C)[C@@H](O[C@@H]2O[C@H](C)C[C@H](N(C)C)[C@H]2O)[C@](C)(OC)C[C@@H](C)C(=NO)[C@H](C)[C@@H](O)[C@]1(C)O [Ex. 2] | > 100 | > 100 | 12.5 | > 100 | 12.5 | 0.78 | > 100 | > 100 | > 100 | > 100 | 0.56 | > 100 | > 100 | 0.78 | 6.2 | 0.02 | > 100 | 1.56 | 3.1 | 0.78 | minimum inhibitory concentration (MIC) [22]: > 100; minimum inhibitory concentration (MIC) [23]: > 100; minimum inhibitory concentration (MIC) [24]: 25; minimum inhibitory concentration (MIC) [25]: > 100; minimum inhibitory concentration (MIC) [26]: > 100
3 | CC[C@H]1OC(=O)[C@H](C)C[C@H](C)[C@@H](O[C@@H]2O[C@H](C)C[C@H](N(C)C)[C@H]2O)[C@](C)(OC)C[C@@H](C)C(=O)[C@H](C)[C@H]2OC(=O)O[C@@]21C [Ex. 3] | > 100 | > 100 | 6.2 | > 100 | 3.1 | 0.2 | > 100 | > 100 | > 100 | > 100 | 0.78 | > 100 | > 100 | 0.2 | 3.1 | 0.2 | > 100 | 0.78 | 0.78 | 0.78 | minimum inhibitory concentration (MIC) [1]: 6.2; minimum inhibitory concentration (MIC) [22]: > 100; minimum inhibitory concentration (MIC) [23]: > 100; minimum inhibitory concentration (MIC) [24]: 3.1; minimum inhibitory concentration (MIC) [25]: > 100; minimum inhibitory concentration (MIC) [26]: > 100
4 | CC[C@H]1OC(=O)[C@H](C)C[C@H](C)[C@@H](O[C@@H]2O[C@H](C)C[C@H](N(C)C)[C@H]2O)[C@](C)(OC)C[C@@H](C)C(=NOCOCCOC)[C@H](C)[C@@H](O)[C@]1(C)O [Ex. 8] | 50 | > 100 | 0.1 | > 100 | 0.2 | 0.02 | > 100 | > 100 | > 100 | 100 | 6.2 | 100 | 12.5 | 0.02 | 25 | 0.05 | 100 | 0.02 | 0.2 | 0.2 | minimum inhibitory concentration (MIC) [1]: 0.1; minimum inhibitory concentration (MIC) [22]: > 100; minimum inhibitory concentration (MIC) [23]: 100; minimum inhibitory concentration (MIC) [24]: 1.56; minimum inhibitory concentration (MIC) [25]: > 100; minimum inhibitory concentration (MIC) [26]: > 100
